Results reported in patent US20180015101A1, “COMPOSITIONS AND METHODS FOR ANTIGEN-SPECIFIC TOLERANCE” (INSERM (INSTITUT NATIONAL DE LA SANTÉ ET DE LA RECHERCHE …, priority 2014, published 2018).

What was measured:
Human PBMC = assay: HO-1 expression in human PBMC after in vitro hemin treatment; assay type: cell-based; settings: 4 hours in vitro
Experimental: Human and non-human primate PBMC: Human PBMCs were obtained at the Etablissement Français du Sang in Nantes from blood of healthy donors. After Ficoll-Paque density gradient centrifugation (GE Healthcare), PBMC were cultured in RPMI 1640 (Gibco) supplemented with 10% fetal bovine serum (Eurobio), 1% glutamine (Gibco), 50 IU/mL penicillin 50 IU/mL streptomycin (Gibco) in presence or not of CoPP or hemin during 4 hours.
Flow Cytometry: Single-cells suspensions of spleen and lymph nodes were stained with anti-CD8 (clone 53-6.7), anti-CD45.1 (clone A20), anti-CD49b/α2 (clone DX5), anti-CD49d/α4 (clone RI-2), anti-ITGAE/αE (clone M290), anti-CD29/β1-integrin (clone Ha2/5), anti-CD18/β2-integrin (clone C71/16), anti-CD61/β3-integrin (clone 2C9.G2), anti-CD62E (clone 10E9.6), anti-CD62L (clone Mel14), anti-PSGL1 (clone 2PH1), anti-ICAM-1 (clone 3E2), anti-VCAM-1 (clone 429), anti-CD183/CXCR3 (clone CXCR3-173), anti-CD195/CCR5 (clone C34-3448), anti-GITR (clone DTA-1), anti-PD-1 (clone J43), anti-CD28 (clone 37.51), anti-CD38 (clone 90), anti-CD69 (clone H1.2F3), anti-CD44 (clone IM7), anti-CD107b (clone ABL-93) antibodies. All antibodies are from BD Biosciences. […]

[1] = tested on: Human monocytic THP-1 cells; assay: HO-1 expression in THP-1 cells after HO-1 inducer treatment; assay type: cell-based; settings: 16 hours in vitro
Experimental: Human THP-1 monocytic cell line and co-culture with CD8^+ T cells clones: THP-I cells were cultured in RPMI 1640 (Gibco) supplemented with 10% fetal bovine serum (Eurobio), 1% glutamine (Gibco), 50 IU/mL penicillin 50 IU/mL streptomycin (Gibco) and 200 nM PMA (Sigma-Aldrich) under standard conditions as previously described (36).
(§1) Flow Cytometry: Single-cells suspensions of spleen and lymph nodes were stained with anti-CD8 (clone 53-6.7), anti-CD45.1 (clone A20), anti-CD49b/α2 (clone DX5), anti-CD49d/α4 (clone RI-2), anti-ITGAE/αE (clone M290), anti-CD29/β1-integrin (clone Ha2/5), anti-CD18/β2-integrin (clone C71/16), anti-CD61/β3-integrin (clone 2C9.G2), anti-CD62E (clone 10E9.6), anti-CD62L (clone Mel14), anti-PSGL1 (clone 2PH1), anti-ICAM-1 (clone 3E2), anti-VCAM-1 (clone 429), anti-CD183/CXCR3 (clone CXCR3-173), anti-CD195/CCR5 (clone C34-3448), anti-GITR (clone DTA-1), anti-PD-1 (clone J43), anti-CD28 (clone 37.51), anti-CD38 (clone 90), anti-CD69 (clone H1.2F3), anti-CD44 (clone IM7), anti-CD107b (clone ABL-93) antibodies. All antibodies are from BD Biosciences. Intracellular staining of HO-1 using BD cytofix/cytoperm kit following manufacturers' recommendations were performed with anti-HO-1 antibody (clone HO-1-2, abcam) as primary labeling reagent and with anti-anti-IgG1 (clone MOPC-21) monoclonal antibody conjugated to a fluorochrome as secondary labeling reagent.

HO-1 [2] = assay: HO-1 induction in lymph nodes of baboons after intradermal Normosang; assay type: in vivo, Baboons (Papio anubis); settings: 24 h after intradermal 6.25, 12.5 or 25 mg
Experimental: Non-Human primates: Baboons (Papio anubis, from the CNRS Primatology Center, Rousset, France) were negative for all quarantine tests. Animals were housed at the large animal facility of our laboratory following the recommendations of the Institutional Ethical Guidelines of the Institut National de la Santé Et de la Recherche Médicale, France. All experiments were performed under general anaesthesia with Zoletil (Virbac, Carron, France). Three Baboons were injected intradermally in the inguinal fold with respectively 6.25 mg (500 μL), 12.5 mg (500 μL) or 25 mg (1 mL) of clinical hemin (Normosang®). A non-treated baboon has served as control. Inguinal lymph nodes were surgically removed 24 hours after intradermal injection. Single-cell suspensions for flow cytometry analysis were prepared by enzymatic lymph node disaggregation with Collagenase D (Sigma-Aldricht).
Intradermal immunization with Normosang®: Three Baboons were injected intradermally in the inguinal fold with respectively 6.25 mg (500 μL), 12.5 mg (500 μL) or 25 mg (1 mL) of clinical hemin (Normosang®). A non-treated baboon has served as control.
Inguinal lymph nodes were surgically removed 24 hours after intradermal injection. Single-cell suspensions for flow cytometry analysis were prepared by enzymatic lymph node disaggregation with Collagenase D (Sigma-Aldricht). […]

C57BL/6 mice = assay: Experimental Autoimmune Encephalomyelitis (EAE), prophylactic and curative intradermal treatment; assay type: in vivo; settings: for protection against EAE (clinical score): i.d., low dose CoPP 0.2 mg/mouse, preventive or curative settings
Experimental: Experimental Autoimmune Encephalomyelitis (EAE) induction: Briefly, C57BL/6 were immunized by a subcutaneous injection of emulsified complete freund adjuvant (CFA, sigma aldrich) complemented with mycobacterium tuberculosis (400 μg, BD) and MOG35-55 peptide (200 μg, genecust). Pertussis toxin is injected (200 ng i.v, VWR) at the time of immunization and two days later. Clinical signs of EAE were evaluated daily and scored as follows: 0, normal; 1, limp tail; 2, partial paralysis of the hind limbs; 3, complete paralysis of the hind limbs; 4, hind-limb paralysis and forelimb weakness; 5, moribund or deceased
[…] Same injections were repeated twice at three days interval. For curative treatment, mice were treated with one injection in each ear at the EAE onset (i.e., mean clinical score, 0.72±0.1) with the same quantity than in prophylactic treatment. Same injections were repeated twice at three days interval after EAE onset.

HO-1^+ MoDCs = assay: MoDC recruitment in draining LN after intradermal injection; assay type: in vivo; settings: given as dermal migration inhibitor in CoPP-injected mice
Experimental: Isolation of murine APCs and co-culture with autoreactive CTLs: For MHC-II^+ and F4/80^+ cells isolation, skin-draining LNs were removed 24 hours after intradermal injection in the back or in the ear. Single-cell suspensions were prepared by enzymatic lymph node disaggregation with collagenase D (Sigma-Aldricht). Cells were stained with anti-MHC-II-FITC (clone AF6-120.1, BD pharmingen) or anti-F4/80-PE (clone BM8, eBioscience) monoclonal antibodies as primary labeling reagent and respectively with anti-FITC or anti-PE microbeads (Miltenyi) as secondary reagent. After magnetic separation, we checked that purity was >82% for CD11b^+CD11c^lowLy6C^highF4/80^+ cells in CoPP-OVA immunized mice. These cells were co-cultured with autoreactive CTLs (respectively 1:1 and 1:5 APC to CTL ratio) overnight for velocity measurement and transwell migration assay. […]

HO-1 [3] = assay: HO-1 expression in MHC-II+ cells of draining lymph nodes after intradermal injection (FACS); assay type: in vivo, mice
Experimental: Isolation of murine APCs and co-culture with autoreactive CTLs: For MHC-II^+ and F4/80^+ cells isolation, skin-draining LNs were removed 24 hours after intradermal injection in the back or in the ear. Single-cell suspensions were prepared by enzymatic lymph node disaggregation with collagenase D (Sigma-Aldricht). Cells were stained with anti-MHC-II-FITC (clone AF6-120.1, BD pharmingen) or anti-F4/80-PE (clone BM8, eBioscience) monoclonal antibodies as primary labeling reagent and respectively with anti-FITC or anti-PE microbeads (Miltenyi) as secondary reagent. After magnetic separation, we checked that purity was >82% for CD11b^+CD11c^lowLy6C^highF4/80^+ cells in CoPP-OVA immunized mice. These cells were co-cultured with autoreactive CTLs (respectively 1:1 and 1:5 APC to CTL ratio) overnight for velocity measurement and transwell migration assay.
(§2) Intradermal immunization of mice and diabetes induction: Eight to ten week-old Rip-OVAhigh mice received two intradermal injections in the back with 70 μg of CoPP (Livchem) prepared as described and 20 μg of endofree ovalbumin (Hyglos) in 10 μl. One hundred and forty micrograms of MnPP (Livchem) prepared as described (18) was added to the preparation for HO-1-inhibition experiments. Forty micrograms of Alexa Fluor® 488 ovalbumin (Molecular Probes) has been used for phagocytosis assay. For diabetes induction, mice were injected i.v. the following day with 0.5×10^5 autoreactive cytotoxic OT-I CD8^+ T cells (purity >95%) previously co-cultured or not with MHC-II^+ or F4/80^+ cells during 4 hours.
as §1

Rip-OVA^high mice = assay: Diabetes induction in Rip-OVAhigh mice by transfer of autoreactive CTLs after immunization; assay type: in vivo; settings: intradermal injection one day before CTL transfer
Experimental: as §2, with “hours. […]” for “hours.”
Histological analysis: For evaluation of insulitis, pancreata were snap-frozen and cryosections (8 μm thick) were acetone-fixed. Sections were stained with H&E (Thermo Electron Corp.), and the degree of insulitis was evaluated microscopically.
Light-sheet-based fluorescent microscopy analysis: Animals were perfused with PFA 4% and washed with PBS. […] For GFP fluorescence imaging, we used a 525/50 band pass filter on the turret. […] The images stacks are analyzed using ImageJ software (Rasband, W. S., ImageJ, U. S. National Institutes of Health, Bethesda, Md., USA, http://imagej.nih.gov/ij/, 1997-2012).

NOD mice = settings: administered systemically before disease onset; cited from earlier work
[4] = after CoPP intradermal injection

| Compound | HO-1 expression in THP-1 cells [1] | protection against EAE (clinical score) (C57BL/6 mice) | diabetes development (Rip-OVA^high mice) | effect on T1D (NOD mice) | also measured |
| --- | --- | --- | --- | --- | --- |
| protoporphyrin IX containing a ferric iron ion (Heme B) with a chloride ligand [hemin] | dose-dependently expressed HO-1 |  |  |  | HO-1 expression in human MHC-II+CD11clowCD14+ cells (Human PBMC): induced highest HO-1 expression; frequency of HO-1+ cells in draining LN (HO-1 [2]): dose-dependently increased |
| MOG35-55: myelin oligodendrocyte glycoprotein (MOG) 35-55 peptide, cognate antigen in EAE (MEVGWYRSPFSRVVHLYRNGK; UniProt Q61885 63-83, looked up, fragment) |  | protection was not observed |  |  |  |
| O=C(O)CCCCCCC1C(=O)NC(=O)N1CCC(O)C1CCCCC1 (stereo not shown) [BW245c] |  |  |  |  | effect on MoDC recruitment (HO-1^+ MoDCs): did not affect |
| C=CC1=C(C)c2cc3[n-]c(cc4nc(cc5[n-]c(cc1n2)c(C)c5CCC(=O)[O-])C(CCC(=O)[O-])=C4C)c(C)c3C=C.[Co+2].[H+].[H+] [CoPP, Cobalt protoporphyrin] | dose-dependently expressed HO-1 | not sufficient to tolerize against EAE | protection was not observed | inhibit T1D in NOD mice | duration of HO-1 induction (HO-1 [3]; [4]): at least 72 hours; earliest time HO-1 induction observed (HO-1 [3]; [4]): ≤ 24 h; localisation of HO-1 induction (HO-1 [3]; intradermal injection): restricted to the draining LNs; increase of HO-1 expression in MHC-II+ cells in draining lymph nodes (HO-1 [3]; intradermal injection, RIP-OVAhigh mice): 5.8 fold; MOG-specific CD4+ T-cell proliferation capacity (C57BL/6 mice; vs untreated mice): same proliferation capacity |
| ovalbumin |  |  | protection was not observed |  |  |
| [C-]#[O+] [CO, carbon monoxide] |  |  |  | inhibit T1D in NOD mice |  |
